Here are results for nine compounds from article PMC5399792 (Nucleic Acids Research, 2017).

Several values for one entry are separate records, joined by “and”; a condition that tells them apart may be missing. Identical values can stand only once. Like-named read-outs stand apart in the source and are kept apart here.

Data set [1] addresses influenza B polymerase, vPol (c5' hook) (Influenza B virus, UniProt Q5V8Y6). The experiment in a line: biochemical. The arrangement: species or system influenza B/Memphis/13/03.
Data set [2] has as its target influenza B polymerase initiating RNA synthesis at the cRNA promoter (cPol) (Influenza B virus, UniProt Q5V8Y6). The experiment in a line: biochemical. Format: biochemical, influenza B/Memphis/13/03.
Data set [3] deals with T1, influenza B polymerase initiating RNA synthesis at the vRNA promoter (vPol) (Influenza B virus, UniProt Q5V8X3+Q5V8Y6). The data set is described as follows: biochemical. The settings on record: IC50 (mM).
The test system of another data set is influenza polymerase. Also noted: method as in PMID 8585725. The settings on record: in vitro and cell culture experiments; cited from earlier work.
Another data set concerns influenza B polymerase. The data set is described as follows: Fluorescence anisotropy/polarization protein-RNA binding. The arrangement: species or system influenza B/Memphis/13/03. The settings on record: for dissociation constant, polymerase + RNA (in words): each RNA separately. How it is done:
Fluorescence spectroscopy was used to quantify protein–RNA interactions, employing either a plate reader or cuvette format. Using the cuvette, protein was successively added to FAM-Ex-5-labelled RNA (if not indicated otherwise) in binding buffer (50 mM HEPES/NaOH, 0.15 M NaCl, 10% (v/v) glycerol, 2 mM Tris(2-carboxyethyl)phosphine (TCEP), pH 7.4) at the concentrations indicated. After attaining equilibrium, total fluorescence intensity and fluorescence anisotropy were measured at T = 24°C with a fluorescence spectrometer (Photon Technology International) equipped with polarizers with excitation and emission wavelengths set to 495 and 515 nm, respectively. Total fluorescence intensity was corrected for the volume change due to addition of protein and the observed fluorescence anisotropy corrected for the change in fluorescence intensity according to Equation (1) ([17]): (1) where fb represents the fractional concentration of bound RNA, r the observed anisotropy, rf and rb the anisotropy of free and bound RNA, and If and Ib the fluorescence intensity of free and bound RNA, respectively. Using KaleidaGraph (Synergy Software), dissociation constants were derived by fitting the binding isotherms to a 1:1 binding model of RNA and protein according to Equation (2) (2) where fb represents the fractional concentration of bound RNA, L the total concentration of labelled RNA, P the concentration of protein and KD the dissociation constant.
For orientation: In fluorescence polarisation assays a small probe gives low polarisation when free and higher when bound to something large.

Data set [4] concerns the target Cy3-labelled c3΄ RNA (18-mer). The experiment in a line: FRET assay of RNA-RNA interaction with c3΄ RNA. It is filed as binding. The settings on record: FAM-labelled 5΄ RNA, T = 25°C. How it is done: (§1) RNA–RNA interactions were quantified by a simple FRET-assay. Briefly, ∼0.01 μM short 5΄ RNAs labelled at their 3΄ ends by FAM-Ex-5 were incubated at T = 25°C in 384 well plates (FIA plate black, 128.0/85 mm, medium binding; Greiner Bio-One GmbH, Austria) in binding buffer (50 mM HEPES/NaOH, 0.15 M NaCl, 10% (v/v) glycerol, 2 mM Tris(2-carboxyethyl)phosphine (TCEP), pH 7.4) with 3΄ RNAs labelled at their 5΄ end by Cy3 at the concentrations indicated. After attaining equilibrium (∼0.5 h), the FAM's fluorescence intensity was recorded as averaged technical triplicates (excitation / emission = 485/520 nm; 10 nm band width; CLARIOstar, BMG Labtech, Germany). The decreasing fluorescence intensity with increasing Cy3-labelled 3΄ RNA is plotted relative to its initial value as mean values of at least duplicate experiments with the standard deviation indicated. Mean values were then analysed according to Equation (2) (with P equaling the concentration of Cy3-labelled 3΄ RNA; curve fitting yielded L = 0.007 μM and 0.004 μM for FAM-Ex-5-labelled c5΄ and v5΄ nts 1–18, respectively), yielding the corresponding dissociation constants and error of the fitting routine stated. 0.2 μM FAM-Ex-5-labelled v5΄ nt 1–10 were used to study its weak interaction with either Cy3-labelled v3΄ nt 1–9 or v3΄ nt 1–18.

The target of the next data set is Cy3-labelled v3΄ nt 1–18. The experiment in a line: FRET assay of RNA-RNA interaction with v3΄ nt 1–18. It is filed as binding. The settings on record: FAM-labelled 5΄ RNA, T = 25°C. As for the experimental part:
as §1

Data set [5] has as its target T1, influenza B polymerase initiating RNA synthesis at the vRNA promoter (vPol). The settings on record: read-out: KM of primer, vPol, 0.5 mM NTPs, 0.15 μM template v3΄ 1–18, 0.25 μM polymerase, T = 24°C.
Where [6] appears, read: 0.025 mM NTPs, capped RNA primed, T ∼ 21°C, t = 5 min, not duplicate, read-out: IC50 (mM), vPol (c5' hook).
Where [7] appears, read: 0.025 mM NTPs, capped RNA primed, T ∼ 21°C, t = 176 or 100 min, read-out: IC50 (mM), cPol.
Setting [8] is: 0.25 mM NTPs, capped RNA primed, T ∼ 21°C, t = 15 or 10 min, read-out: IC50 (mM), cPol.
[9] abbreviates: 0.025 mM NTPs, capped RNA primed, T ∼ 21°C, t = 5 min.
Where [10] appears, read: 0.25 mM NTPs, capped RNA primed, T ∼ 21°C, t = 5 min.

Turning to `Nc1nc2c(ncn2[C@@H]2O[C@H](COP(=O)(O)OP(=O)(O)OP(=O)(O)O)[C@@H](O)[C@H]2F)c(=O)[nH]1` [2'F-2'dGTP], the IC50 (usually the concentration at which inhibition is half-maximal) is 0.01 mM in data set [1] (setting [6]); 0.28 mM in data set [2] (setting [7]); 0.43 mM in data set [2] (setting [8]); 0.02 mM in data set [3] (setting [9]); 0.2 mM in data set [3] (setting [10]). In addition, the “mode of inhibition of influenza polymerase with respect to GTP” value with influenza polymerase is “reversibly and competitively”.

“5΄-UAUACCUCUGCUUCUGCU-3΄ (chemistry not given here) [v3', genomic vRNA 3΄ end, 18 nucleotides]”: in the data set with influenza B polymerase, the “dissociation constant, polymerase + RNA (in words)” value (shortened to “dissociation constant”) is reported as “low nanomolar range”.

In the case of “5′-UACCCUCUUGUUACUACU-3′ (chemistry not given here) [c3', anti-genomic cRNA 3΄ end, 18 nucleotides]”, the “dissociation constant” value with influenza B polymerase is listed as “low nanomolar range”.

5′-pAGCAGAAGCAGAGGUAUA-3′ [c5']: the dissociation constant (Kd) – broadly, the concentration at which binding is half-saturated – in data set [4] is 0.0016 ± 0.0003 µM; in data set [4] (listed as c5΄), about 0.0016 µM; on Cy3-labelled v3΄ nt 1–18, 0.03 nM; at Cy3-labelled v3΄ nt 1–18 (listed as c5΄), about 0.03 nM; on influenza B polymerase (fluorescently labelled RNA, binding buffer pH 7.4, read-out: KD, polymerase + promoter RNA), under 0.01 µM. Moreover, on influenza B polymerase, the “dissociation constant” value is “low nanomolar range”.

In the case of `O=c1ccn([C@@H]2O[C@H](COP(=O)(O)OP(=O)(O)OP(=O)(O)O)[C@@H](O)[C@H]2F)c(=O)[nH]1` [2'F-2'dUTP], the IC50 in data set [1] is 0.3 mM; in data set [2] (IC50 (mM), cPol) it was 1.1 mM and 1.8 mM; in data set [3], 0.45 mM and 3.1 mM.

As to `Nc1ccn([C@@H]2O[C@H](COP(=O)(O)OP(=O)(O)OP(=O)(O)O)[C@@H](O)[C@H]2F)c(=O)n1` [2'F-2'dCTP], the IC50 is 0.1 mM in data set [1]; 1.5 mM and 2.1 mM in data set [2] (IC50 (mM), cPol); 0.21 mM and 1.4 mM in data set [3].

Consider `Nc1ncnc2c1ncn2[C@@H]1O[C@H](COP(=O)(O)OP(=O)(O)OP(=O)(O)O)[C@@H](O)[C@H]1F` [2'F-2'dATP], for which the IC50 was 0.03 mM in data set [1] (setting [6]); 0.7 mM in data set [2] (setting [7]); 0.38 mM in data set [2] (setting [8]); 0.03 mM in data set [3] (setting [9]); 0.3 mM in data set [3] (setting [10]).

5΄-pAGUAGUAACAAGAG-3΄ [non-capped RNA]: the Michaelis constant (Km) (in general, the substrate concentration at which the rate is half of its maximum) in data set [5] is 1.1 ± 0.2 µM; in data set [5] (listed as v5′ 1-14), about 1 µM.

In the case of 5΄-m^7GpppAAUCUAUAAUAG-3΄ [capped RNA], the Km in data set [5] came to 0.027 ± 0.01 µM; in data set [2] (0.5 mM NTPs, 0.15 μM template c3΄ 1–18, 0.25 μM polymerase, T = 24°C, read-out: KM (capped RNA), cPol) it was 0.12 ± 0.03 µM.
